Experimental data taken from patent US20180098969A1, “HODGKIN LYMPHOMA THERAPY” (Purdue Pharmaceutical Products L.P., priority 2016, published 2018).

How the values were obtained:
[1] = test system: Hodgkin lymphoma cell lines L1236-R100, L1236/DMSO and L1236; assay: Viable cell count and IC50, all three lines; assay type: cell-based, human
Protocol: (b) The bendamustine-resistant Hodgkin lymphoma cell line L1236-R100, non-resistant L1236 Hodgkin lymphoma cell line cultured in DMSO L1236/DMSO and L1236 was cultured in the presence of EDO-S101 dissolved in DMSO at concentrations of 0.78 μM, 1.56 μM, 3.12 μM, 6.25 μM and 12.5 μM. Control cells were cultured in the same final concentration of DMSO. The number of viable cells was assessed at 24, 48 and 72 hours through a Countess™ automated cell counter (Invitrogen), each experiment being repeated three times and the results given being the mean of the three results ±SD.

L428 cells = assay: Xenograft in NSG mice, HE staining and immunohistochemistry; assay type: in vivo
Text: Immunodeficient NOD-SCID-gammac−/− (NSG) mice aged 5 to 6 weeks were purchased from Charles River (NOD.Cg-Prkdcscid Il2rgtm1Wjl/SzJ). The mice arrived two weeks before the beginning of the experiments and were housed in micro-isolator cages during the entire course of the study. Immediately prior to the injection of Hodgkin lymphoma cells, mice were exposed to 3 Gy gamma irradiation using an IBL637 ^137Cs irradiator at a dose rate of 0.61 Gy/min. From 10^3 to 10^6 cells, either from the original cell lines or following amplification, were injected intravenously via the retro-orbital sinus. The mice were sacrificed by cervical dislocation and different organs were analysed and tumoural infiltration examined using multiple techniques.
Two independent experiments were performed to investigate the dose-effect of EDO-S101 in NSG mice eight weeks after xenografting with L428 cells as in Example 8. The aim of the protocol shown in FIG. […]
The mice were sacrificed by cervical dislocation. The sampled organs consisted of the eyes (site of injection), liver, spleen and bone marrow. Following dissection of different organs, including tumours, the first portion was used for flow cytometry (FACS) and cytogenetic analyses while the second was fixed in 4% paraformaldehyde (PFA) for immunohistochemistry (IHC). To obtain a single cell suspension, the tissues were first cut into pieces. Thereafter, the cells were physically disaggregated using an 80 μm nylon cell strainer and filtered a second time through a 70 μm nylon cell strainer (BD Biosciences, Erembodegem, Belgium).
Organs were fixed in 4% PFA, trimmed and post-fixed in 70° ethanol. They were then briefly processed using a vacuum inclusion processor and paraffin blocks were prepared. Five micrometer-thick sections were cut from these blocks and the resulting sections were stained with hemotoxylin-eosine (H&E) for histopathological analysis. In addition, IHC was carried out on of the totality of liver and spleen specimens for confirmation of the spread of engrafted cells. The search for single cells or small groups of grafted Hodgkin lymphoma cells was performed using an anti-CD30 antibody (DAKO, France; 1:40, EDTA pH9 pre-treatment) and the Ventana Discovery XT IHC system. Apoptosis and tumour necrosis were analysed.
Microscopic findings were assigned a severity score based upon the following scale: “0”=within physiological limits, “1”=minimal, “2”=mild, “3”=moderate, “4”=marked, “5”=severe. This severity score was attributed according to the size and number of observed lesions.

Structure (SMILES): Cn1c(CCCCCCC(=O)NO)nc2cc(N(CCCl)CCCl)ccc21 [EDO-S101]
- anti-proliferative activity compared with bendamustine [1]: approximately two orders of magnitude greater than for bendamustine
- tumour masses in liver and infiltration into other organs (L428 cells; 80 mg/kg): No tumour masses were observed in the liver, nor was infiltration observed into the other organs
- tumour cell necrosis (L428 cells; 80 mg/kg or 60 mg/kg): No cell necerosis was observed
- Injection site: Tumour cell necrosis/apoptosis: Marked (L428 cells; 80 mg/kg, % of mice): 0.0%
- Injection site: Tumour cell necrosis/apoptosis: Mild (L428 cells; 80 mg/kg, % of mice): 0.0%
- Injection site: Tumour cell necrosis/apoptosis: Minimal (L428 cells; 80 mg/kg, % of mice): 0.0%
- Injection site: Tumour cell necrosis/apoptosis: Moderate (L428 cells; 80 mg/kg, % of mice): 0.0%
- Injection site: Tumour cell necrosis/apoptosis: No (L428 cells; 80 mg/kg, % of mice): 0.0%
- Injection site: Tumour cell necrosis/apoptosis: Overall (L428 cells; 80 mg/kg, % of mice): 100.0%
- Injection site: Tumour cell necrosis/apoptosis: Severe (L428 cells; 80 mg/kg, % of mice): 0.0%
- Injection site: Tumour infiltration: Marked (L428 cells; 80 mg/kg, % of mice): 0.0%
- Injection site: Tumour infiltration: Mild (L428 cells; 80 mg/kg, % of mice): 0.0%
- Injection site: Tumour infiltration: Minimal (L428 cells; 80 mg/kg, % of mice): 0.0%
- Injection site: Tumour infiltration: Moderate (L428 cells; 80 mg/kg, % of mice): 0.0%
- Injection site: Tumour infiltration: No (L428 cells; 80 mg/kg, % of mice): 0.0%
- Injection site: Tumour infiltration: Overall (L428 cells; 80 mg/kg, % of mice): 33.3%
- Injection site: Tumour infiltration: Severe (L428 cells; 80 mg/kg, % of mice): 33.3%
- Liver: Tumour infiltration: Marked (L428 cells; 80 mg/kg, % of mice): 0.0%
- Liver: Tumour infiltration: Mild (L428 cells; 80 mg/kg, % of mice): 0.0%
- Liver: Tumour infiltration: Minimal (L428 cells; 80 mg/kg, % of mice): 0.0%
- Liver: Tumour infiltration: Moderate (L428 cells; 80 mg/kg, % of mice): 0.0%
- Liver: Tumour infiltration: No (L428 cells; 80 mg/kg, % of mice): 100.0%
- Liver: Tumour infiltration: Overall (L428 cells; 80 mg/kg, % of mice): 0.0%
- Liver: Tumour infiltration: Severe (L428 cells; 80 mg/kg, % of mice): 0.0%
- Tumour presence: Animals with tumour infiltration in liver and in the injection area (L428 cells; 80 mg/kg, % of mice): 0.0%
- Tumour presence: Overall (L428 cells; 80 mg/kg, % of mice): 33.3%
- Injection site: Tumour cell necrosis/apoptosis: Marked (L428 cells; 1 * 60 mg/kg, % of mice): 0.0%
- Injection site: Tumour cell necrosis/apoptosis: Mild (L428 cells; 1 * 60 mg/kg, % of mice): 0.0%
- Injection site: Tumour cell necrosis/apoptosis: Minimal (L428 cells; 1 * 60 mg/kg, % of mice): 50.0%
- Injection site: Tumour cell necrosis/apoptosis: Moderate (L428 cells; 1 * 60 mg/kg, % of mice): 0.0%
- Injection site: Tumour cell necrosis/apoptosis: No (L428 cells; 1 * 60 mg/kg, % of mice): 50.0%
- Injection site: Tumour cell necrosis/apoptosis: Overall (L428 cells; 1 * 60 mg/kg, % of mice): 100.0%
- Injection site: Tumour cell necrosis/apoptosis: Severe (L428 cells; 1 * 60 mg/kg, % of mice): 0.0%
- Injection site: Tumour infiltration: Marked (L428 cells; 1 * 60 mg/kg, % of mice): 50.0%
- Injection site: Tumour infiltration: Mild (L428 cells; 1 * 60 mg/kg, % of mice): 0.0%
- Injection site: Tumour infiltration: Minimal (L428 cells; 1 * 60 mg/kg, % of mice): 0.0%
- Injection site: Tumour infiltration: Moderate (L428 cells; 1 * 60 mg/kg, % of mice): 25.0%
- Injection site: Tumour infiltration: No (L428 cells; 1 * 60 mg/kg, % of mice): 0.0%
- Injection site: Tumour infiltration: Overall (L428 cells; 1 * 60 mg/kg, % of mice): 100.0%
- Injection site: Tumour infiltration: Severe (L428 cells; 1 * 60 mg/kg, % of mice): 25.0%
- Liver: Tumour cell necrosis/apoptosis: Marked (L428 cells; 1 * 60 mg/kg, % of mice): 0.0%
- Liver: Tumour cell necrosis/apoptosis: Mild (L428 cells; 1 * 60 mg/kg, % of mice): 0.0%
- Liver: Tumour cell necrosis/apoptosis: Minimal (L428 cells; 1 * 60 mg/kg, % of mice): 0.0%
- Liver: Tumour cell necrosis/apoptosis: Moderate (L428 cells; 1 * 60 mg/kg, % of mice): 0.0%
- Liver: Tumour cell necrosis/apoptosis: No (L428 cells; 1 * 60 mg/kg, % of mice): 100.0%
- Liver: Tumour cell necrosis/apoptosis: Overall (L428 cells; 1 * 60 mg/kg, % of mice): 0.0%
